# Columns and labels:
# C2C12 cells = assay: MTT cell viability assay; type: cell-based, mouse; settings: for cell viability after one hour of exposure: C2C12, 1 hour, up to 50 μM; for concentration at which cell viability was decreased: C2C12, 24 hours of exposure
# Protocol: Mouse C2C12 skeletal muscle myoblasts (purchased from ATCC, Manassas, Va., USA) were first seeded in 75 cm2 flasks using a culture medium consisting of DMEM (Life Technologies, Grand Island, N.Y., USA), 10% fetal bovine serum (FBS; Atlanta Biologicals, Lawrenceville, Ga., USA), high glucose, L-glutamine, phenol red, 1 mM sodium pyruvate and 100 units/mL penicillin, 100 μg/mL streptomycin. The C2C12 cells were incubated at 37° C. in a humidified atmosphere of 5% CO2 until they were confluent. Then, they were obtained by trypsinization and seeded at a specific density in the plates of choice depending on the experiment.
# For cell viability experiments (MTT assay), C2C12 cells were plated in 96-well plates at a density of 4,000 cells per well in 200 μL of growth medium (identical to the culture medium). After 48 hours of incubation, the medium was removed and the cells were treated with fresh solutions of various concentrations of XN, DXN or TXN in phenol red-free growth medium. The final concentrations of XN, DXN, TXN were 1, 2, 5, 8, 10, 25, 50 μM, all in quadruplicate wells, in the 96-well plates. The medium used consists of phenol red free DMEM (Life Technologies, Grand Island, N.Y., USA), 10% FBS, 1% glutamine, 1 mM of sodium pyruvate and 100 units/mL penicillin, 100 μg/mL streptomycin. The plates were then incubated for 24 hours or 1 hour. After removing the medium, the cells were treated with 0.5 mg/mL solution of MTT 3-(4,5-dimethylthiazol-2-yl)-2,5-diphenyltetrazolium bromide in phenol red-free growth medium and incubated for two hours. After removing the medium and adding a solution of acidified isopropanol to each well, the absorbance of each well was measured at 570 nm by using a spectrometer (SpectraMax 190).
# Two MTT assays were conducted (FIGS. 11A and 11B): after one hour and 24 hours of exposure.
# [1] = system: C2C12 skeletal muscle cells; assay: Seahorse OCR and ECAR measurements after oligomycin; type: cell-based, mouse; settings: for increase in oxygen consumption: as summarised in Example 2
# Protocol: OCR and ECAR measurements were performed with a Seahorse XF 24 Analyzer (Seahorse Bioscience). Cells were plated 24 hours prior to measurements at a density of 40,000 cells per well within growth medium in a 24-well plate. The cells were then allowed to adhere for 24 hours (37° C., 5% CO2). Prior to the assay, the cells were washed with freshly prepared running media consisting of Seahorse XF Assay medium (Seahorse Bioscience, North America, USA), 10 mM glucose and 1 mM sodium pyruvate. The pH of the medium was adjusted to 7.4 with 1 M NaOH. The cells were then equilibrated for one hour at 37° C. without CO2. The compounds were injected during the assay; OCR and ECAR were measured at 9 minutes measurement intervals. The solutions of oligomycin, FCCP, XN, DXN and TXN were freshly prepared in running medium. The final concentrations in the wells were: 1 μM for oligomycin, 5 μM for XN, DXN and TXN and 2, 5, 8, 25 μM for the dose response experiments with DXN. Ethanol was added to the control wells not to exceed a final concentration of 0.1%. All the compounds were tested in quadruplicate on the 24-well plate. XN is highly non-polar and FBS can be used to dissolve XN. Thus, XN, DXN and TXN were first dissolved in ethanol and the resulting solutions were diluted 100-fold in running medium containing 1% of FBS. After a further 10-fold dilution into the media in wells, only 0.1% of FBS was present during OCR measurements. […] The concentration of oligomycin and the cell density used were selected based on preliminary experiments.
# Seahorse data were analyzed in SAS 9.2 (SAS Institute Inc., Cary, N.C.). To show a consistent baseline, OCR values (in pmol/min/mg protein) and ECAR values (in mpH/min/mg protein) for each value were divided prior to statistical analysis by the average of the four pre oligomycin treatment values (0, 8, 17, and 25 minutes) for the corresponding well and are shown as % pre oligomycin values. The original scale for OCR and for ECAR values was utilized for the OCR/ECAR ratio (in pMol/mpH). To account for repeated measures within wells over time, a repeated-measures-in-time design using ANOVA procedures in PROC MIXED was used. Fixed effects in the model were treatment (control, 2 μM DXN, 5 μM XN, 5 μM DXN, and 5 μM TXN for the compound study and control, 2, 5, 8, and 25 μM DXN for the DXN dosage study), time (0, 8, 17, 25, 34, 43, 52, 60, 69, 78, 86, and 95 minutes), and their interaction. The random effect was the experiment (5 experiments for the compound study and 3 experiments for the DXN dosage study). To account for repeated measures within wells over time, a first order homogeneous variance-covariance matrix [AR(1)] was fitted for each well. Using the ESTIMATE statement, a priori contrasts were constructed by comparing the changes in compound treated cells from the last two time points prior to compound treatment (average 52 and 60 minutes) to the changes in control cells during the same time period. This was done for each compound and dosage for 69, 78, 86, and 95 minutes separately and for all four time points combined. […] A P-value of 0.05 was considered statistically significant and is shown as star in the graphs (FIG. 5).
# [2] = system: mitochondrial transmembrane potential in C2C12 cells; assay: JC-1 assay of mitochondrial transmembrane potential; type: cell-based, mouse; settings: 5 μM, 8 μM, 25 μM and 50 μM; one hour of exposure
# Protocol: Cells were plated at a density of 80,000 cells per well in black 96-well plates and incubated for 24 hours at 37° C. (5% CO2). They were then treated with fresh solutions of various concentrations of XN, DXN or TXN in growth medium. The final concentrations of XN, DXN, TXN were 1, 2, 5, 8, 25, 50 μM, all in quadruplicate wells, in the 96-well plates. After one hour of exposure to the compounds at 37° C. (5% CO2), the cells were treated with 10 μL of a JC-1 staining solution (freshly prepared by diluting 11 fold 100 μL of the JC-1 agent furnished from the assay kit). After 15 to 30 minutes of incubation (37° C., 5% CO2), the cells were washed three times with the Cell-Based Assay Buffer (prepared by dissolving three buffer tablets of the kit in 300 mL of MilliQ water). The plates were then analyzed by a fluorescent plate reader (SpectraMax Gemini XS) at 560-595 nm and 485-535 nm.
# JC-1 can selectively enter into mitochondria and reversibly change color from green to red as the membrane potential increases. In healthy cells with high mitochondrial transmembrane potential, JC-1 spontaneously forms complexes known as J-aggregates with intense red fluorescence with excitation and emission at 560 nm and 595 nm, respectively. […] The ratio of fluorescence intensity of J-aggregates to fluorescence intensity of J-monomers can be used as an indicator of cell heath or mitochondrial state. […] A decrease in the values of the ratios compared to the control is indicative of an alteration in the potential across the mitochondrial membrane.
# C2C12 mouse myocytes = assay: Cellular uptake by LC-MS/MS; type: in vitro ADME; settings: 5 μM, one hour
# Protocol: Cellular uptake investigations were performed using C2C12 mouse myocytes. Cells were cultured in 75 cm2 flasks using Dulbecco's Modified Eagle Medium (DMEM) obtained from Sigma-Aldrich, which was supplemented with 10% Fetal Bovine serum (FBS) and 1% penicillin/streptomycin solution (PS). Cultures were maintained in an incubator at 37° C. and 5% CO2.
# Uptake comparisons were conducted by seeding three 12-well plates with 1 mL of C2C12 cells in suspension with a density of 100,000 cells/mL, which were then incubated until confluent. Four treatment groups were compared, including XN, DXN, TXN and a no compound control. Each compound was tested in quadruplicate in the presence of cells and in medium not exposed to cells. Medium not exposed to cells was examined for compound concentration to help account for protein binding in medium. Confluent cells were subsequently treated with fresh DMEM containing 1% FBS, 1% PS, as well as 5 μM XN, DXN, or TXN and incubated at 37° C. and 5% CO2 for one hour. Following incubation, cell medium was collected and the cells were washed once using Hanks Balanced Salt Solution (HBSS). HBSS was then aspirated, and 0.5 mL of cell extraction buffer (50% methanol:ethanol, v:v) was added to each well and the plates were covered with a plastic adhesive plate cover. The plates were placed in a freezer and maintained at −80° C. for 24 hours. After freezing, the plates were removed from the freezer and the cells were removed from the wells using a cell scraper and collected. An additional 0.5 mL of extraction buffer was added to each well as a rinse, which was collected and added to the cell extracts. […]
# All cell culture samples were analyzed by LC-MS/MS using an Applied Biosystems API 4000 Q-trap triple quadrupole mass spectrometer. […] Once concentrations could be determined, mass balance of XN, DXN or TXN was calculated based on the average total volume of the sample, approximately 0.995 mL for cell medium, and 0.75 mL for cellular extracts.
# [3] = Mouse feeding experiment, weight gain; type: in vivo; settings: 30 mg/kg/day in high fat diet, 12 weeks
# Protocol: The total number of C57BL6/J mice was 48, with 12 mice belonging to each of 4 treatment groups. Duration of the feeding was 14 weeks. Mouse feed contained high fat content (60% of kCal), and was supplemented with XN, DXN, or TXN in the treatment groups. XN, DXN and TXN content within the mouse diet were designed to deliver a dose of 30 mg/kg/day body weight. Food intake was measured three times per week by weighing the food pellet before placement in the cage, and at the time of feed changing by weighing uneaten food. Mice were unrestricted in dietary intake, being allowed to eat as much food as desired. Mice were weighed once per week. Groups included low dose (30 mg/kg) XN, DXN, TXN and no supplement control.
# Over the course of 12 weeks, mouse weights were recorded once per week and the average weights were calculated for each group.
# [4] = 5 μM, after oligomycin 1 μM, compound study, five independent experiments
# [5] = 5 μM, oligomycin 1 μM, compound study, average of five independent experiments
Compound,cell viability after one hour of exposure (C2C12 cells),concentration at which cell viability was decreased (C2C12 cells) [µM],"decrease in ECAR ([1]; 2 μM, DXN dosage study) [%]","increase in OCR in the presence of oligomycin ([1]; 2 μM, DXN dosage study, three independent experiments) [%]","decrease in ECAR ([1]; 2 μM, after oligomycin 1 μM, compound study, five independent experiments) [%]","increase in OCR in the presence of oligomycin ([1]; 2 μM, oligomycin 1 μM, compound study, average of five independent experiments) [%]","decrease in ECAR ([1]; 5 μM, DXN dosage study) [%]","increase in OCR in the presence of oligomycin ([1]; 5 μM, DXN dosage study, three independent experiments) [%]","decrease in ECAR [1, 4] [%]",increase in oxygen consumption ([1]; 5 μM),"increase in OCR in the presence of oligomycin [1, 5] [%]","decrease in ECAR ([1]; 8 μM, DXN dosage study) [%]","increase in OCR in the presence of oligomycin ([1]; 8 μM, DXN dosage study, three independent experiments) [%]","OCR response in the presence of oligomycin ([1]; 25 μM, DXN dosage study)","decrease in ECAR ([1]; 25 μM, DXN dosage study) [%]",ratio of aggregates to monomers (JC-1) versus control [2],cellular uptake (of total amount of compound applied to cells) (C2C12 mouse myocytes),weight gain compared to the control [3],effect on OCR at higher concentrations [1]
"COc1cc(O)c(CC=C(C)C)c(O)c1C(=O)CCc1ccc(O)cc1 [DXN, α,β-dihydroxanthohumol]",did not significantly affect cell viability,8,8.0±2.4,6±6,5.9±2.0,8.9±7.0,25.2±2.3,30.8±6.0,17.8±2.0,20%,28.7±6.9,31.6±2.3,55.1±6.0,initial increase in the OCR that was immediately followed by a sharp decrease,49.8±2.3,changed significantly from the control values,7.8%,"followed DXN, then XN",–
"COc1cc(O)c(CCC(C)C)c(O)c1C(=O)CCc1ccc(O)cc1 [TXN, tetrahydroxanthohumol]",did not significantly affect cell viability,25,–,–,–,–,–,–,27.5±2.0,50%,56.8±6.9,–,–,–,–,changed significantly from the control values,6.9%,most dramatic reduction in weight gain compared to the control,tended to inhibit OCR
"COc1cc(O)c(CC=C(C)C)c(O)c1C(=O)/C=C/c1ccc(O)cc1 [XN, xanthohumol]",did not significantly affect cell viability,50,–,–,–,–,–,–,4.7±2.0,approximately 10%,11.3±6.9,–,–,–,–,changed significantly from the control values,approximately 6.6%,"followed DXN, then XN",tended to inhibit OCR
